# Test system: 991263-137-R1-J2-PDC complex spheroid viability
# Experiment: Anticancer human tumor 991263-137-R1-J2-PDC patient-derived colon adenocarcinoma cell line growth inhibition [POLQ]
# Conditions: for IC50: curve of first compound; for viability, T/C: stronger effect = lower value
# Summary of the method: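 Growth inhibition in 3D: complex spheroids (tumor PDC, HUVEC, MSC) treated with POLQ inhibitor combinations; where Cmax unknown, highest tested concentration 10 microM, except SN-38 at 1 microM.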
# [1] = second compound 0.0316 µM, first compound 0.0316 µM
# [2] = second compound 0.0316 µM, first compound 0.1 µM
# [3] = second compound 0.0316 µM, first compound 0.316 µM
# [4] = second compound 0.0316 µM, first compound 1 µM
# [5] = second compound 0.0316 µM, first compound 3.16 µM
# [6] = second compound 0.0316 µM, first compound 10 µM
# [7] = second compound 0.1 µM, first compound 0.0316 µM
# [8] = second compound 0.1 µM, first compound 0.1 µM
# [9] = second compound 0.1 µM, first compound 0.316 µM
# [10] = second compound 0.1 µM, first compound 1 µM
# [11] = second compound 0.1 µM, first compound 3.16 µM
# [12] = second compound 0.1 µM, first compound 10 µM
# [13] = second compound 0.316 µM, first compound 0.0316 µM
# [14] = second compound 0.316 µM, first compound 0.1 µM
# [15] = second compound 0.316 µM, first compound 0.316 µM
# [16] = second compound 0.316 µM, first compound 1 µM
# [17] = second compound 0.316 µM, first compound 3.16 µM
# [18] = second compound 0.316 µM, first compound 10 µM
# [19] = second compound 1 µM, first compound 0.0316 µM
# [20] = second compound 1 µM, first compound 0.1 µM
# [21] = second compound 1 µM, first compound 0.316 µM
# [22] = second compound 1 µM, first compound 1 µM
# [23] = second compound 1 µM, first compound 3.16 µM
# [24] = second compound 1 µM, first compound 10 µM
# [25] = second compound 3.16 µM, first compound 0.0316 µM
# [26] = second compound 3.16 µM, first compound 0.1 µM
# [27] = second compound 3.16 µM, first compound 0.316 µM
# [28] = second compound 3.16 µM, first compound 1 µM
# [29] = second compound 3.16 µM, first compound 3.16 µM
# [30] = second compound 3.16 µM, first compound 10 µM
# [31] = second compound 10 µM, first compound 0.0316 µM
# [32] = second compound 10 µM, first compound 0.1 µM
# [33] = second compound 10 µM, first compound 0.316 µM
# [34] = second compound 10 µM, first compound 1 µM
# [35] = second compound 10 µM, first compound 3.16 µM
# [36] = second compound 10 µM, first compound 10 µM
# 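Note: spheroids exposed to compounds for 7 days before readout.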
# 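Throughout, for viability, T/C: 100% = DMSO vehicle control viability.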
compound,measurement,setting,value
O=C(Nc1ccc(O)c(NS(=O)(=O)c2ccc(F)cc2)c1)c1ccc(-c2ccccc2)cc1 + Nc1ccc(C#CCN(C(=O)Cc2ncc(C(F)(F)F)cc2C(F)(F)F)c2ccc(F)cc2)nn1,IC50,second compound 0.0316 µM,> 10000 nM
same,IC50,second compound 0.1 µM,> 10000 nM
same,IC50,second compound 0.316 µM,> 10000 nM
same,IC50,second compound 1 µM,> 10000 nM
same,IC50,second compound 3.16 µM,> 10000 nM
same,IC50,second compound 10 µM,> 10000 nM
same,"viability, T/C",[1],97.7%
same,"viability, T/C",[2],108%
same,"viability, T/C",[3],107%
same,"viability, T/C",[4],104%
same,"viability, T/C",[5],119%
same,"viability, T/C",[6],100%
same,"viability, T/C",[7],111%
same,"viability, T/C",[8],97.5%
same,"viability, T/C",[9],108%
same,"viability, T/C",[10],107%
same,"viability, T/C",[11],107%
same,"viability, T/C",[12],107%
same,"viability, T/C",[13],101%
same,"viability, T/C",[14],105%
same,"viability, T/C",[15],107%
same,"viability, T/C",[16],105%
same,"viability, T/C",[17],114%
same,"viability, T/C",[18],101%
same,"viability, T/C",[19],96.2%
same,"viability, T/C",[20],100%
same,"viability, T/C",[21],104%
same,"viability, T/C",[22],105%
same,"viability, T/C",[23],97.2%
same,"viability, T/C",[24],102%
same,"viability, T/C",[25],107%
same,"viability, T/C",[26],108%
same,"viability, T/C",[27],95.7%
same,"viability, T/C",[28],109%
same,"viability, T/C",[29],97.4%
same,"viability, T/C",[30],95.3%
same,"viability, T/C",[31],102%
same,"viability, T/C",[32],110%
same,"viability, T/C",[33],94.5%
same,"viability, T/C",[34],104%
same,"viability, T/C",[35],92.5%
same,"viability, T/C",[36],101%
CC1COCCN1c1cc(C2(O)CC3CCC(C2)O3)c2cnn(-c3ccn[nH]3)c2n1 (centres undefined) + Cc1cccc(N(C)C(=O)C2C(O)CCN2c2nc(C)cc(C(F)(F)F)c2C#N)c1,IC50,second compound 0.0316 µM,1240 nM
same,IC50,second compound 0.1 µM,2180 nM
same,IC50,second compound 0.316 µM,1640 nM
same,IC50,second compound 1 µM,3120 nM
same,IC50,second compound 3.16 µM,2570 nM
same,IC50,second compound 10 µM,959 nM
same,"viability, T/C",[1],107%
same,"viability, T/C",[2],84.8%
same,"viability, T/C",[3],67.5%
same,"viability, T/C",[4],55.8%
same,"viability, T/C",[5],35.8%
same,"viability, T/C",[6],30.1%
same,"viability, T/C",[7],110%
same,"viability, T/C",[8],103%
same,"viability, T/C",[9],82.3%
same,"viability, T/C",[10],61.1%
same,"viability, T/C",[11],46.4%
same,"viability, T/C",[12],29.2%
same,"viability, T/C",[13],107%
same,"viability, T/C",[14],110%
same,"viability, T/C",[15],75.9%
same,"viability, T/C",[16],59.2%
same,"viability, T/C",[17],42.5%
same,"viability, T/C",[18],28.3%
same,"viability, T/C",[19],92%
same,"viability, T/C",[20],98.2%
same,"viability, T/C",[21],87.1%
same,"viability, T/C",[22],67.4%
same,"viability, T/C",[23],52.5%
same,"viability, T/C",[24],28.6%
same,"viability, T/C",[25],93.4%
same,"viability, T/C",[26],85.5%
same,"viability, T/C",[27],74.4%
same,"viability, T/C",[28],61.6%
same,"viability, T/C",[29],47.4%
same,"viability, T/C",[30],34.6%
same,"viability, T/C",[31],90.9%
same,"viability, T/C",[32],98.8%
same,"viability, T/C",[33],75.2%
same,"viability, T/C",[34],48.2%
same,"viability, T/C",[35],37.7%
same,"viability, T/C",[36],25.9%

# Reference: PubChem BioAssay AID1963828 (Molecular Pharmacology Branch, DTP, NCI, 2024)
